Data reported in publication PMC3100590 (Journal of medicinal chemistry, 2011).
Where two headings read alike, the source gives them in different places. One block for each molecule: values may come before it.

Assays:
[1] = biological target: dopamine D1 receptors (Homo sapiens, UniProt P21728); experiment: Dopamine D1 receptor binding; conditions: data not shown
[2] = biological target: T1, human D3 dopamine receptor (D3R) (Homo sapiens, UniProt P35462); format: binding; conditions: for D2/D3: ratio of Ki values; for decrease of D3R binding affinity on replacing the amide by the amine linker: amine analogue vs corresponding amide (13b vs 19; 15b vs 8j)
[3] = biological target: human D2L dopamine receptor (D2R) (Homo sapiens, UniProt P14416); format: binding; conditions: for Ki: read-out: D2R Ki ± S.E.M., Table 2, HEK 293 hD2LR, 125I-IABN
[4] = biological target: T1, human D3 dopamine receptor (D3R); conditions: Table 2; previously reported, ref [6]; cited from earlier work
[5] = biological target: hD3 (D3R) (Homo sapiens, UniProt P35462); experiment: Quinpirole-induced mitogenesis assay in hD3-transfected CHOp cells; format: cell-based
hD3 (D3R), sequence (P35462 whole entry): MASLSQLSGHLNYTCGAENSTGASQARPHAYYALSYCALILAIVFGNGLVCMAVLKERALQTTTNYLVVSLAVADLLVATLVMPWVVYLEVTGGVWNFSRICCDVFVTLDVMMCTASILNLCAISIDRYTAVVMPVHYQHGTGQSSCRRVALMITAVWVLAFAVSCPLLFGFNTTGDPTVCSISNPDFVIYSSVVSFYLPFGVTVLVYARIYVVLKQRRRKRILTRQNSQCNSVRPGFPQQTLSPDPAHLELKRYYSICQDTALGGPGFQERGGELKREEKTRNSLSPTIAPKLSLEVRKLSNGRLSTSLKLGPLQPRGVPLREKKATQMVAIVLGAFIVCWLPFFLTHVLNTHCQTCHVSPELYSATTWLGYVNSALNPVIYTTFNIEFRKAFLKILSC

T1 sequence (P35462 whole entry): as above
dopamine D1 receptors, sequence (P21728 whole entry): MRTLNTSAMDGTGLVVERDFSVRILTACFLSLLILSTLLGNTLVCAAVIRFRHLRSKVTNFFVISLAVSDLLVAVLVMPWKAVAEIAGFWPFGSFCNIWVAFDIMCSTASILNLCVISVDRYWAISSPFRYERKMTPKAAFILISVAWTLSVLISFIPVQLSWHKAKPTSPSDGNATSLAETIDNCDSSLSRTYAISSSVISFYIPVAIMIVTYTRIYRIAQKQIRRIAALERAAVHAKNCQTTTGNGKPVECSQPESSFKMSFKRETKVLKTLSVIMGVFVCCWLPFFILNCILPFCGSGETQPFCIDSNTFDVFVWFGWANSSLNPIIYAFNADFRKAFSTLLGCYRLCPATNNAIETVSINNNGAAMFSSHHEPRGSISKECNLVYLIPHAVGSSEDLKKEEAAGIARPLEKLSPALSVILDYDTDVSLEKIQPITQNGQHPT
human D2L dopamine receptor (D2R), sequence (P14416 whole entry): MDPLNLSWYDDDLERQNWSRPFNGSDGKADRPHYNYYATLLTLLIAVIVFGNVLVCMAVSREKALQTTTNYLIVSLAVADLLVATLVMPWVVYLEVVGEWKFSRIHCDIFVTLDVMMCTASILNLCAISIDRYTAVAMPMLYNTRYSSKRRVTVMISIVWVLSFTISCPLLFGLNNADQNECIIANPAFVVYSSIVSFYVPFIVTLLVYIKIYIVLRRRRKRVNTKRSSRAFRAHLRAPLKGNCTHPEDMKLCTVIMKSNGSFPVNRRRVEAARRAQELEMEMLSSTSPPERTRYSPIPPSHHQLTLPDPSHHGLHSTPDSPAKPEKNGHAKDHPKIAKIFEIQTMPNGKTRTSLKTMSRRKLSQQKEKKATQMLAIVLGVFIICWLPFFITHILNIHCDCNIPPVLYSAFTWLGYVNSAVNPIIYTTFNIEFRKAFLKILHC

binding at dopamine D1 receptors [1]: selectivity over D1
Molecule: O=C(NCCC(F)CN1CCN(c2cccc(Cl)c2Cl)CC1)c1cc2ccccc2o1 (centres unmarked) [Compound 8d, N-(4-(4-(2,3-Dichlorophenyl)piperazin-1-yl)-3-fluorobutyl)benzofuran-2-carboxamide]

D3R-selectivity over D2R [2]: > 60 fold
Molecule: COc1ccccc1N1CCN(CC(F)CCNC(=O)c2cc3ccccc3s2)CC1 (centres unmarked) [Compound 8k, N-(3-Fluoro-4-(4-(2-methoxyphenyl)piperazin-1-yl)butyl)benzo[b]thiophene-2-carboxamide]

Ki [3]: 69.9 ± 7.3 nM
D2/D3 ([2]; Table 2): 1
Ki ([2]; read-out: D3R Ki ± S.E.M., Table 2, HEK 293 hD3R, 125I-IABN): 67.9 ± 2.4 nM
Molecule: N-(Benzo[b]thiophen-2-ylmethyl)-4-(4-(2-methoxyphenyl)piperazin-1-yl)-N-propylbutan-1-amine [Compound 13a]

Molecule: COc1ccccc1N1CCN(CCCCNC(=O)c2ccc3c(c2)Cc2ccccc2-3)CC1 [Compound 18, N-(4-(4-(2-methoxyphenyl)piperazin-1-yl)butyl)-9H-fluorene-2-carboxamide]
D2/D3 [4]: 185

D3R-selectivity over D2R [2]: > 130 fold
Molecule: O=C(NCCC(F)CN1CCN(c2cccc(Cl)c2Cl)CC1)c1cc2ccccc2s1 (centres unmarked) [Compound 8l, N-(4-(4-(2,3-Dichlorophenyl)piperazin-1-yl)-3-fluorobutyl)benzo[b]thiophene-2-carboxamide]

D2R binding affinity increased on replacing the amide by the amine linker ([3]; 15b vs amide 8j): ~ 2 fold
decrease of D3R binding affinity on replacing the amide by the amine linker [2]: 150 fold
Molecule: CN(CCC(F)CN1CCN(c2cccc(Cl)c2Cl)CC1)Cc1ccc2c(c1)Cc1ccccc1-2 (centres unmarked) [Compound 15b, N-((9H-Fluoren-2-yl)methyl)-4-(4-(2,3-dichlorophenyl)piperazin-1-yl)-3-fluoro-N-methylbutan-1-amine]

D2R binding affinity reduced on replacing the amide by the amine linker ([3]; 13b vs amide 19): 2.5 fold
Ki [3]: 162 ± 1.2 nM
D3R-selectivity over D2R [2]: 2 fold
D2/D3 ([2]; Table 2): 2
decrease of D3R binding affinity on replacing the amide by the amine linker [2]: 126 fold
Molecule: N-(Benzo[b]thiophen-2-ylmethyl)-4-(4-(2,3-dichlorophenyl)piperazin-1-yl)-N-propylbutan-1-amine [Compound 13b]

D3R-selectivity over D2R [2]: > 60 fold
Molecule: COc1ccc2[nH]c(C(=O)NCCC(F)CN3CCN(c4ccccc4OC)CC3)cc2c1 (centres unmarked) [Compound 8m, N-(3-Fluoro-4-(4-(2-methoxyphenyl)piperazin-1-yl)butyl)-5-methoxy-1H-indole-2-carboxamide]

D3R-selectivity over D2R [2]: > 130 fold
Molecule: O=C(NCCC(F)CN1CCN(c2cccc(Cl)c2Cl)CC1)c1cc2ccccc2[nH]1 (centres unmarked) [Compound 8h, N-(4-(4-(2,3-Dichlorophenyl)piperazin-1-yl)-3-fluorobutyl)-1H-indole-2-carboxamide]

D3R-selectivity over D2R [2]: > 1000 fold
binding at dopamine D1 receptors [1]: selectivity over D1
Molecule: O=C(NCCC(F)CN1CCN(c2cccc(Cl)c2Cl)CC1)c1ccc2c(c1)Cc1ccccc1-2 (centres unmarked) [Compound 8j, N-(4-(4-(2,3-Dichlorophenyl)piperazin-1-yl)-3-fluorobutyl)-9H-fluorene-2-carboxamide]

binding at dopamine D1 receptors [1]: selectivity over D1
Molecule: COc1ccccc1N1CCN(CC(F)CCNC(=O)c2ccc3c(c2)Cc2ccccc2-3)CC1 (centres unmarked) [Compound 8i, N-(3-Fluoro-4-(4-(2-methoxyphenyl)piperazin-1-yl)butyl)-9H-fluorene-2-carboxamide]

D3R-selectivity over D2R [2]: > 130 fold
EC50 [5]: 4.9 nM
D3 mitogenesis % stimulation ([5]; agonist mode, value in parentheses): 14.9%
Molecule: COc1ccc2[nH]c(C(=O)NCCC(F)CN3CCN(c4cccc(Cl)c4Cl)CC3)cc2c1 (centres unmarked) [Compound 8n, N-(4-(4-(2,3-Dichlorophenyl)piperazin-1-yl)-3-fluorobutyl)-5-methoxy-1H-indole-2-carboxamide]
functional profile in the D3R mitogenesis assay [5]: more potent partial agonist than an antagonist
